Assay [1] has as its system DAT. As to conditions: read-out: EC50 in rat synaptosomes; reference not given; cited from earlier work.
The subject of assay [2] is rTAAR1. The note with it: read-out: EC50 Rat TAAR1; cited from earlier work.
Assay [3] concerns mTAAR1. The note with it: read-out: EC50 Mouse TAAR1; cited from earlier work.
The conditions of assay [4]: cited from earlier work; for excitation in humans: doses of 100 mg (or greater).
For assay [5], the target named is T1, hTAAR1 (Homo sapiens, UniProt Q96RJ0).
T1 sequence (Q96RJ0 1-339): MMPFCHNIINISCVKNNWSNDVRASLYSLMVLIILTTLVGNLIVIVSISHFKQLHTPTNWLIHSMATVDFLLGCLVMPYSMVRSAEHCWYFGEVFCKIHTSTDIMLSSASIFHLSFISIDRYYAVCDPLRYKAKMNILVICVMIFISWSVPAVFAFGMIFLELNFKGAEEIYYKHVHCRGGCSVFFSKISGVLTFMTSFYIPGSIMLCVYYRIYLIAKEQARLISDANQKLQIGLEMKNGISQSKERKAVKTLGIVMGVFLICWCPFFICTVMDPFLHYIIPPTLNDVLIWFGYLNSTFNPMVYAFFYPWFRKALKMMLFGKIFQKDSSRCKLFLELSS
Type of assay: cell-based.

Data on 7 molecules can be found in article PMC3236098 (Bioorganic & medicinal chemistry, 2011).

The structures appear in SMILES notation.

`C[C@H](N)Cc1ccccc1` [(S)-1, (S)-amphetamine]: the results for the EC50 in assay [1], in assay [2] and in assay [3] were […], 1200 ± 70 nM and 2 ± 1 nM, respectively. Regarding `CN[C@@H](C)Cc1ccc2c(c1)OCO2` [(S)-4, (S)-3,4-methylenedioxymethamphetamine], the excitation in humans result in assay [4] is on record as “excitation”. For the molecule `C[C@H](N)Cc1cccc(C(F)(F)F)c1` [(S)-6, (S)-norfenfluramine], the “EC50 Human, potency to activate TAAR1” value in assay [5] is reported as “active ^*”. Take `COc1cc(C[C@H](C)N)c(OC)cc1C` [(S)-8, (S)-4-methyl-2,5-dimethoxyamphetamine]: the “agonist activity at hTAAR1 (in words)” value in assay [5] is recorded as “lack of observed agonist activity”. `C[C@H](N)Cc1ccc2c(c1)OCO2` [(S)-3, (S)-3,4-methylenedioxyamphetamine]: in assay [4], the excitation in humans entry is reported as “excitation”.

On to `COc1cc(C[C@H](C)N)c(OC)cc1Br` [(S)-7, (S)-4-bromo-2,5-dimethoxyamphetamine], for which the effect in humans result in assay [4] (doses of 0.5–1.0 mg) is given as “no effect”. For `C[C@@H](N)Cc1ccccc1` [(R)-1, (R)-amphetamine], the EC50 in assay [2] was 1400 ± 600 nM; in assay [3] it was 65 ± 53 nM.
